Laboratory results published in paper PMC4807864 (The Journal of antibiotics, 2013).
Structures can show the parent of a compound that is named as a salt.

Columns and labels:
[1] = molecular target: Sfp (Bacillus subtilis, UniProt P39135); experiment: SDS-PAGE fluorescent carrier protein labeling follow-up; type: biochemical, B. subtilis; settings: gel analysis (Figure S22)
[2] = molecular target: T1, human PPTase (hPPTase) (Homo sapiens, UniProt Q9NRN7); experiment: Fluorescence polarization phosphopantetheinylation assay; type: biochemical
T1 sequence (Q9NRN7 1-309): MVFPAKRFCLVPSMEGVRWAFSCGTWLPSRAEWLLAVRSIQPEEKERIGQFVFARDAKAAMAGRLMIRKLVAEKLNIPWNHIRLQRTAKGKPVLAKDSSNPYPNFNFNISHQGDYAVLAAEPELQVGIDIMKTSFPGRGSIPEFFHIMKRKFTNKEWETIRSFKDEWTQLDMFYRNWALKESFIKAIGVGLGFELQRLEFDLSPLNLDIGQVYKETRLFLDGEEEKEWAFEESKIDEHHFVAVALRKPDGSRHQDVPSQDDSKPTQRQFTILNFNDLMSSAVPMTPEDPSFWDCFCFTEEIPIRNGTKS

Chain of Sfp (P39135 whole entry): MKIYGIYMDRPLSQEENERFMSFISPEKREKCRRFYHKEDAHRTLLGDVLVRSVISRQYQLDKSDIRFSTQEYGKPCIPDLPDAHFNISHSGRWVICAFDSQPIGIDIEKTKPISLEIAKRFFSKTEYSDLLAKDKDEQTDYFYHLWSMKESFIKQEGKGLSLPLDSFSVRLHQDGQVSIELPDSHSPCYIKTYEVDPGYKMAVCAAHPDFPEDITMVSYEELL

SMILES	Effect on fluorescent labeling of the carrier protein substrate by SDS-PAGE [1]	IC50 [2] [µM]
CC(C)(C)c1ccc(S(=O)(=O)/C=C/C#N)cc1 [Bay 11-7085]	increase fluorescent labeling	–
NC(CO)C(=O)NNCc1ccc(O)c(O)c1O (stereo not drawn) [benserazide HCl, benserazide]	–	> 100
CC(C)(COP(=O)(O)OP(=O)(O)OC[C@H]1O[C@@H](n2cnc3c(N)ncnc32)[C@H](O)[C@@H]1OP(=O)(O)O)[C@@H](O)C(=O)NCCC(=O)NCCS [coenzyme A]	–	14 ± 1
NC(N)=Nc1ccc2[nH]c3c(c2c1)C[C@@]1(O)[C@H]2Cc4ccc(O)c5c4[C@@]1(CCN2CC1CC1)[C@H]3O5.O=C(O)C(F)(F)F.O=C(O)C(F)(F)F [guanidinyl-naltrindole]	increase fluorescent labeling	–
C[n+]1cc2c3c(ccc2c2ccc4cc5c(cc4c21)OCO5)OCO3 [sanguinarine Cl, sanguinarine]	inhibitory behavior	> 100
